Test results from patent US11365193B2, “Oxadiazole compound and fungicide for agricultural and horticultural use” (Nippon Soda Co., Ltd., priority 2017, dated 2022).

tested on: wheat red rust pathogen (Puccinia recondita); experiment: Test Example 1: wheat red rust disease control test (100 ppm); assay type: in vivo; settings: 100 ppm by mass sprayed on wheat young seedlings (Norin 61), inoculated after air-drying; blotch area ratio 12 days after inoculation
Experimental: 5 parts by, mass of an oxadiazole compound, 93.5 parts by mass of dimethylformamide, and 1.5 parts by mass of polyoxyethylene alkyl aryl ether were mixed and dissolved to obtain an emulsion (I) containing 5% by mass of the active ingradient.
The control value was calculated by the following formula. Control value (%)=100-{blotch area ratio in treated area/blotch area ratio in untreated area}×100
Water was added to the emulsion (I) such that the concentration of the oxadiazole compound became 100 ppm by mass, and then the oxadiazole compound was dissolved to obtain a pharmaceutical solution. Then, the pharmaceutical solution was sprayed on wheat young seedings (variety “Norin 61” at the first to second leaf stage) grown in nursery pots. After air-drying, the wheat young seedings sprayed with the pharmaceutical solution were inoculated with summer spores of wheat red rust pathogen (Puccinia recondita) by spraying the summer spores (in treated area).
As a control, wheat young seedings that were not sprayed with the pharmaceutical solution were inoculated in the same manner as mentioned above (in untreated area).
The wheat young seedings were placed under humid conditions at 20° C. for 1 day. […] After 12 days passed from inoculation, leaves of the wheat seedings were visually observed to measure the blotch area ratio, and the control value was calculated.

Row | Compound | Control value
1 | C[S+]([O-])CCOc1cc(=O)n(Cc2ccc(-c3noc(C(F)(F)F)n3)cc2)cn1 (centres unmarked) [Compound 2-75] | 2-75%

tested on: not given; experiment: not given; settings: not given

Row | melting point [°C] | Compound
2 | 126 to 128 | N#CCON=C1CCN(C(=O)Cc2ccc(-c3noc(C(F)(F)F)n3)cc2)CC1 [Compound 20]
3 | 191 to 192 | O=C(Cc1ccc(-c2noc(C(F)(F)F)n2)cc1)N1CCC(=NO)CC1 [Compound 25]
4 | 83 to 86 | CCON=C1CCN(C(=O)Cc2cccc(-c3noc(C(F)(F)F)n3)c2)CC1 [Compound 11]
5 | 126 to 129 | O=C(Cc1ccc(-c2noc(C(F)(F)F)n2)cc1)N1CC(=NOCC(F)(F)F)C1 [Compound 9]
6 | 104 to 106 | O=C(Cc1ccc(-c2noc(C(F)(F)F)n2)cc1)N1CCC(=NOC2CCCCO2)CC1 (centres unmarked) [Compound 15]
7 | 83 to 85 | CCCON=C1CN(C(=O)C(SCC)c2ccc(-c3noc(C(F)(F)F)n3)cc2)C1 (centres unmarked) [Compound 45]
8 | 82 to 83 | O=C(Cc1ccc(-c2noc(C(F)(F)F)n2)cc1)N1CC(=NOC2CCCCO2)C1 (centres unmarked) [Compound 16]
9 | 139 to 140 | O=C(Cc1ccc(-c2noc(C(F)(F)F)n2)cc1)N1CC(=NOCc2ccccc2)C1 [Compound 17]
10 | 114 to 116 | COCCON=C1CN(C(=O)Cc2ccc(-c3noc(C(F)(F)F)n3)cc2)C1 [Compound 19]
11 | 128 to 130 | CCON=C1CCN(C(=O)Cc2ccc(-c3noc(C(F)(F)F)n3)cc2)CC1S(C)(=O)=O (centres unmarked) [Compound 34]
12 | 139 to 141 | CCON=C1CN(C(=O)C(=O)c2ccc(-c3noc(C(F)(F)F)n3)cc2)C1 [Compound 30]
13 | 84 to 86 | O=C(Cc1ccc(-c2noc(C(F)(F)F)n2)cc1)N1CCC(=NOCC(F)(F)F)CC1 [Compound 10]
14 | 120 to 121 | CON=C1CCN(C(=O)Cc2ccc(-c3noc(C(F)(F)F)n3)cc2)CC1SC (centres unmarked) [Compound 33]
15 | 73 to 76 | CON=C1CCN(C(=O)Cc2ccc(-c3noc(C(F)(F)F)n3)cc2)CC1 [Compound 8]
16 | 68 to 69 | CSCCON=C1CCN(C(=O)Cc2ccc(-c3noc(C(F)(F)F)n3)cc2)CC1 [Compound 27]
17 | 125 to 126 | N#CCON=C1CN(C(=O)Cc2ccc(-c3noc(C(F)(F)F)n3)cc2)C1 [Compound 21]
18 | 73 to 75 | CCSCON=C1CN(C(=O)Cc2ccc(-c3noc(C(F)(F)F)n3)cc2)C1 [Compound 12]
19 | 80 to 82 | CCON=C1CCN(C(=O)Cc2ccc(-c3noc(C(F)(F)F)n3)cc2)CC1SC (centres unmarked) [Compound 32]
20 | 71 to 72 | N#CCCON=C1CCN(C(=O)Cc2ccc(-c3noc(C(F)(F)F)n3)cc2)CC1 [Compound 26]
21 | 147 to 149 | CCON=C1CN(C(=O)C(=NOC)c2ccc(-c3noc(C(F)(F)F)n3)cc2)C1 [Compound 31]
22 | 108 to 110 | CCON=C1CN(C(=O)C(SC)c2ccc(-c3noc(C(F)(F)F)n3)cc2)C1 (centres unmarked) [Compound 44]
23 | 96 to 100 | CC(C)ON=C1CCN(C(=O)Cc2ccc(-c3noc(C(F)(F)F)n3)cc2)CC1 [Compound 22]
24 | 140 to 141 | O=C(Cc1ccc(-c2noc(C(F)(F)F)n2)cc1)N1CC(=NOCC(F)F)C1 [Compound 41]

The next lines start with the molecule.

Row | Compound | melting point [°C]
25 | O=c1cc(OCC=NOCc2ccccc2)ncn1Cc1ccc(-c2noc(C(F)(F)F)n2)cc1 [Compound 1-44] | 78 to 80
26 | O=c1cc2c(nn1Cc1ccc(-c3noc(C(F)(F)F)n3)cc1)CCC2 [Compound 1-31] | 94 to 97
27 | O=c1cccnn1-c1ccc(-c2noc(C(F)(F)F)n2)cc1 [Compound 1-5] | 97 to 100
28 | CCON=C1CN(C(=O)Cc2ccc(-c3noc(C(F)(F)F)n3)cc2)C1 [Compound 5] | 130 to 134
29 | O=c1c2c(ncn1Cc1ccc(-c3noc(C(F)(F)F)n3)cc1)CCC2 [Compound 1-25] | 165 to 168
30 | C[S+]([O-])c1cnn(-c2ccc(-c3noc(C(F)(F)F)n3)cc2)c(=O)c1 (centres unmarked) [Compound 1-17] | 145 to 147
31 | O=c1c2c(cnn1Cc1ccc(-c3noc(C(F)(F)F)n3)cc1)OCCC2 [Compound 1-32] | 87 to 89
32 | O=c1cc(N2CCOCC2)ncn1Cc1ccc(-c2noc(C(F)(F)F)n2)cc1 [Compound 1-52] | 235 to 237
33 | O=c1cccnn1CC(O)c1ccc(-c2noc(C(F)(F)F)n2)cc1 (centres unmarked) [Compound 1-36] | 119 to 121
34 | O=c1c2ccccc2ncn1-c1ccc(-c2noc(C(F)(F)F)n2)cc1 [Compound 1-4] | 233 to 235
35 | O=c1c2ccccc2ncn1Cc1ccc(-c2noc(C(F)(F)F)n2)cc1 [Compound 1-3] | 178 to 180
36 | O=c1cccnn1CC1(c2ccc(-c3noc(C(F)(F)F)n3)cc2)OCCO1 [Compound 1-14] | 105 to 107
37 | Cc1ccn(-c2ccc(-c3noc(C(F)(F)F)n3)cc2)c(=O)c1 [Compound 1-8] | 151 to 154
38 | O=c1c2ccccc2cnn1Cc1ccc(-c2noc(C(F)(F)F)n2)cc1 [Compound 1-11] | 133 to 136
39 | N#CCON=CCOc1cc(=O)n(Cc2ccc(-c3noc(C(F)(F)F)n3)cc2)cn1 [Compound 1-46] | 131 to 133
40 | Cc1nc2c(cnn2C)c(=O)n1Cc1ccc(-c2noc(C(F)(F)F)n2)cc1 [Compound 1-23] | 118 to 120
41 | Cc1noc2cnn(Cc3ccc(-c4noc(C(F)(F)F)n4)cc3)c(=O)c12 [Compound 1-21] | 158 to 160
42 | Cc1nn(C)c2cnn(Cc3ccc(-c4noc(C(F)(F)F)n4)cc3)c(=O)c12 [Compound 1-22] | 187 to 190
43 | O=c1cc2ccccc2cn1Cc1ccc(-c2noc(C(F)(F)F)n2)cc1 [Compound 1-6] | 165 to 168
44 | O=c1c2ccccc2cnn1-c1ccc(-c2noc(C(F)(F)F)n2)cc1 [Compound 1-10] | 141 to 144
45 | O=C(Cn1ncccc1=O)c1ccc(-c2noc(C(F)(F)F)n2)cc1 [Compound 1-15] | 122 to 125

Row | Compound | melting point [°C]
46 | O=C(C(=NOCC(F)(F)F)c1ccc(-c2noc(C(F)(F)F)n2)cc1)n1ncccc1=O [Compound 1-29] | 82 to 98
47 | O=c1cc(OCC=NOCC(F)F)ncn1Cc1ccc(-c2noc(C(F)(F)F)n2)cc1 [Compound 1-45] | 111 to 115
48 | CON=C1CN(C(=O)Cc2ccc(-c3noc(C(F)(F)F)n3)cc2)C1 [Compound 7] | 172 to 176
49 | CON=CCOc1ncn(Cc2ccc(-c3noc(C(F)(F)F)n3)cc2)c(=O)c1Cl [Compound 1-37] | 201 to 203
50 | O=c1ccccn1-c1ccc(-c2noc(C(F)(F)F)n2)cc1 [Compound 1-2] | 130 to 133
51 | Cc1ccc(=O)n(-c2ccc(-c3noc(C(F)(F)F)n3)cc2)n1 [Compound 1-9] | 78 to 83
52 | CCON=C1CCN(C(=O)Cc2ccc(-c3noc(C(F)(F)F)n3)cc2)CC1 [Compound 6] | 86 to 88
53 | O=c1c2c(ncn1Cc1ccc(-c3noc(C(F)(F)F)n3)cc1)CCCC2 [Compound 1-26] | 157 to 160
54 | CS(=O)(=O)c1cnn(-c2ccc(-c3noc(C(F)(F)F)n3)cc2)c(=O)c1 [Compound 1-18] | 186 to 188
55 | CON=C1CN(C(=O)c2ccc(-c3noc(C(F)(F)F)n3)cc2)C1 [Compound 2] | 162 to 165
56 | COCCON=CCOc1cc(=O)n(Cc2ccc(-c3noc(C(F)(F)F)n3)cc2)cn1 [Compound 1-41] | 94 to 96
57 | Cl.O=c1c2c(ncn1Cc1ccc(-c3noc(C(F)(F)F)n3)cc1)CNCC2 [Compound 1-47] | 192 to 195
58 | Cc1nc2c(c(=O)n1Cc1ccc(-c3noc(C(F)(F)F)n3)cc1)CCCC2 [Compound 1-34] | 132 to 135
59 | CSc1cnn(-c2ccc(-c3noc(C(F)(F)F)n3)cc2)c(=O)c1 [Compound 1-16] | 151 to 153
60 | CCON=CCOc1cc(=O)n(Cc2ccc(-c3noc(C(F)(F)F)n3)cc2)cn1 [Compound 1-40] | 139 to 142
61 | CON=CCOc1cc(=O)n(Cc2ccc(-c3noc(C(F)(F)F)n3)cc2)cn1 [Compound 1-38] | 143 to 148
62 | O=c1cccnn1CCc1ccc(-c2noc(C(F)(F)F)n2)cc1 [Compound 1-33] | 74 to 80
63 | Cn1ncc2c(=O)n(Cc3ccc(-c4noc(C(F)(F)F)n4)cc3)cnc21 [Compound 1-24] | 225 to 228
64 | O=c1cc(OCC=NOC2CCCCO2)ncn1Cc1ccc(-c2noc(C(F)(F)F)n2)cc1 (centres unmarked) [Compound 1-42] | 103 to 106
65 | Cc1nn(C)c2nc(C)n(Cc3ccc(-c4noc(C(F)(F)F)n4)cc3)c(=O)c12 [Compound 1-30] | 163 to 166
